Tests used:
[1] = grouping used to generate the distinguishing gene profiles; cited from earlier work
rat heart tissue = assay: GENECALLING differential gene expression analysis after dosing of serotonin modulating agents; type: in vivo, Sprague Dawley rats
How it was run: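 Rats dosed with serotonin modulating agents, controls given sterile water or canola oil; tissue taken 24 h after the last dose. Total RNA converted to cDNA and profiled by GENECALLING differential expression analysis; fragments changed more than ±1.5-fold were selected.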

CNCCC(Oc1ccc(C(F)(F)F)cc1)c1ccccc1 (stereo not drawn) [fluoxetine]
−2.7 fold: Effects on Transcription Level: Novel gene fragment, 186 bp, 66% SI to human N-acetylglucosaminyltransferase 1 (GlcNAc-TI)[M55621] (rat heart tissue; CARDIOTOX 60)
+2.1 fold: Effects on Transcription Level: Novel gene fragment, 440 bp, 92% SI to mouse cytochrome c oxidase Vllc [X52940] (rat heart tissue; CARDIOTOX 67)
−1.1 fold: Effects on Transcription Level: Plasma membrane Ca2 + ATPase-isoform 1 (rat heart tissue; CARDIOTOX 9, GenBank J03753) | Effects on Transcription Level: Novel gene fragment, 81 bp, 85% SI to human titin [X90568] (rat heart tissue; CARDIOTOX 46)
+3.7 fold: Effects on Transcription Level: Novel gene fragment, 477 bp, 98% SI to peroxisomal phytanoyl-CoA hydroxylase (PHYH) [AF121345] (rat heart tissue; CARDIOTOX 64)
−1.0 fold: Effects on Transcription Level: Novel gene fragment, 89 bp, 93% SI to human putative glialblastoma cell differentiation-related protein (GBDR1) [AF068195] (rat heart tissue; CARDIOTOX 53)
+1.3 fold: Effects on Transcription Level: Novel gene fragment, 524 bp, 86% SI to mouse F-box protein FBX6b [AF176526] (rat heart tissue; CARDIOTOX 1) | Effects on Transcription Level: Novel gene fragment, 280 bp, 65% SI to human TRF1-interacting, ankyrin-related ADP-ribose polymerase [AF082556] (rat heart tissue; CARDIOTOX 11) | Effects on Transcription Level: Kruppel-like transcription factor (rat heart tissue; CARDIOTOX 14, GenBank AB020759) | Effects on Transcription Level: Glucose-regulated protein (GRP) 75 (rat heart tissue; CARDIOTOX 16, GenBank S78556) | Effects on Transcription Level: Novel gene fragment, 1324 bp, 76% SI to human flavoprotein subunit of complex II [D30648] (rat heart tissue; CARDIOTOX 21) | Effects on Transcription Level: Novel gene fragment, 178 bp, 91% SI to mouse myosin light chain-2 isoform MLC-2a [S70785] (rat heart tissue; CARDIOTOX 23) | Effects on Transcription Level: Novel gene fragment, 1070 bp, 80% SI to human muscle-specific protein [AF249873] (rat heart tissue; CARDIOTOX 25) | Effects on Transcription Level: Novel gene fragment, 178 bp, 68% SI to mouse IgG receptor (beta-Fc-gamma-RII)[M63159] (rat heart tissue; CARDIOTOX 34) | Effects on Transcription Level: Alpha-platelet-derived growth factor receptor (rat heart tissue; CARDIOTOX 37, GenBank M63837) | Effects on Transcription Level: ERK or MAP kinase (rat heart tissue; CARDIOTOX 40, GenBank X65198) | Effects on Transcription Level: Peroxisomal multifunctional enzyme type II (rat heart tissue; CARDIOTOX 41, GenBank U37486) | Effects on Transcription Level: HBP23 (heme-binding protein 23 kDa) (rat heart tissue; CARDIOTOX 42, GenBank D30035) | Effects on Transcription Level: Caveolae-associated protein (rat heart tissue; CARDIOTOX 43, GenBank U90725) | Effects on Transcription Level: Novel gene fragment, 337 bp, 88% SI to rabbit cardiac ryanodine receptor (RyR-2)[U50465] (rat heart tissue; CARDIOTOX 45) | Effects on Transcription Level: Adenylate kinase 3 (rat heart tissue; CARDIOTOX 55, GenBank D13062) | Effects on Transcription Level: Amyloid beta-peptide binding protein (rat heart tissue; CARDIOTOX 56, GenBank AF049878)
−11.0 fold: Effects on Transcription Level: Novel gene fragment, 276 bp, 80% SI to human titin [X90568] (rat heart tissue; CARDIOTOX 68)
−1.2 fold: Effects on Transcription Level: Novel gene fragment, 540 bp, 97% SI to mouse skeletal muscle alpha-actin [X03766] (rat heart tissue; CARDIOTOX 3) | Effects on Transcription Level: Novel gene fragment, 282 bp, 85% SI to human KIAA1515 protein [AB040948] (rat heart tissue; CARDIOTOX 6) | Effects on Transcription Level: Membrane-spannining proteoglycan NG2 (rat heart tissue; CARDIOTOX 18, GenBank X56541) | Effects on Transcription Level: Novel gene fragment, 167 bp, 90% SI to mouse Rab20 [X80332] (rat heart tissue; CARDIOTOX 24) | Effects on Transcription Level: Novel gene fragment, 1216 bp, 93% SI to mouse mircotubule-associated protein (MAP) 1B protein [AF115776] (rat heart tissue; CARDIOTOX 50) | Effects on Transcription Level: Rho-associated kinase beta (rat heart tissue; CARDIOTOX 54, GenBank U61266)
+2.0 fold: Effects on Transcription Level: Novel gene fragment, 413 bp, 95% SI to mouse dihydrolipoamide dehydrogenase (Dld) [U73445] (rat heart tissue; CARDIOTOX 65)
−2.6 fold: Effects on Transcription Level: Novel gene fragment, 133 bp, 77% SI to human apoptosis related protein hSARP3 [patent database: V19114] (rat heart tissue; CARDIOTOX 63)
+1.2 fold: Effects on Transcription Level: Novel gene fragment, 405 bp, 88% SI to human 2-oxoglutarate dehydrogenase [D10523] (rat heart tissue; CARDIOTOX 7) | Effects on Transcription Level: Novel gene fragment, 348 bp, 88% SI to mouse Sec61 protein complex gamma subunit [U11027] (rat heart tissue; CARDIOTOX 12) | Effects on Transcription Level: Novel gene fragment, 852 bp, 81% SI to human vacuolar proton-ATPase subunit M9.2 [Y15286] (rat heart tissue; CARDIOTOX 22) | Effects on Transcription Level: Novel gene fragment, 1143 bp, 82% SI to human sarcoma amplified sequence (SAS) [U01160] (rat heart tissue; CARDIOTOX 26) | Effects on Transcription Level: Novel gene fragment, 74 bp,75% SI to human secreted protein [X30160] (from patent database)/[X97578] (from patent database)/potential cytokine) (rat heart tissue; CARDIOTOX 27) | Effects on Transcription Level: Novel gene fragment, 408 bp, 90% SI to human CGI-07 protein [AF132941] (rat heart tissue; CARDIOTOX 28) | Effects on Transcription Level: Novel gene fragment, 717 bp (rat heart tissue; CARDIOTOX 30) | Effects on Transcription Level: Ribosomal protein L6 (rat heart tissue; CARDIOTOX 35, GenBank X87107) | Effects on Transcription Level: Prenylated rab acceptor 1 (PRA1) (rat heart tissue; CARDIOTOX 44, GenBank AF025506)
+1.0 fold: Effects on Transcription Level: Novel gene fragment, 723 bp, 85% SI to human translation initiation factor elF3 p40 subunit [U54559] (rat heart tissue; CARDIOTOX 20)
−1.3 fold: Effects on Transcription Level: Novel gene fragment, 306 bp, 91% SI to mouse low density lipoprotein receptor related protein 4 [AB013874] (rat heart tissue; CARDIOTOX 2) | Effects on Transcription Level: Novel gene fragment, 80 bp (rat heart tissue; CARDIOTOX 4) | Effects on Transcription Level: UCP2 (rat heart tissue; CARDIOTOX 8, GenBank AB010743) | Effects on Transcription Level: Rab GD1 alpha protein (rat heart tissue; CARDIOTOX 38, GenBank X74402) | Effects on Transcription Level: Novel gene fragment, 428 bp, 85% SI to human titin [90568] (rat heart tissue; CARDIOTOX 49)
noncardiotoxic: classification as cardiotoxic or noncardiotoxic serotonin modulating agent [1]
+2.8 fold: Effects on Transcription Level: Novel gene fragment, 710 bp, 94% SI to mouse chromatin structural protein homolog Supt5 hp (Supt5 h)[U88539] (rat heart tissue; CARDIOTOX 58)
−1.7 fold: Effects on Transcription Level: Novel gene fragment, 238 bp, 95% SI to mouse MAP kinase-activated protein kinase 2 [X76850] (rat heart tissue; CARDIOTOX 61)
−3.7 fold: Effects on Transcription Level: Novel gene fragment, 149 bp, 70% SI to human titin [X90568] (rat heart tissue; CARDIOTOX 69)
+1.4 fold: Effects on Transcription Level: Novel gene fragment, 242 bp, 97% SI to mouse HSP86 heat-shock protein [X16857] (rat heart tissue; CARDIOTOX 10) | Effects on Transcription Level: Immunoglobulin heavy chain binding protein (BiP) (rat heart tissue; CARDIOTOX 17, GenBank M14050) | Effects on Transcription Level: Novel gene fragment, 618 bp, 95% SI to rat progression related cDNA, ZNPE-120 3′ end partial sequence [patent database X90805] (rat heart tissue; CARDIOTOX 29) | Effects on Transcription Level: Novel gene fragment, 920 bp, 91% SI to human HSPC061 [AF161546] (rat heart tissue; CARDIOTOX 32) | Effects on Transcription Level: CAP2 protein (adenylyl cyclase-associated protein 2) (rat heart tissue; CARDIOTOX 36, GenBank U31935) | Effects on Transcription Level: Mitochondrial adenine nuleotide translocator (rat heart tissue; CARDIOTOX 57, GenBank D12771)
−4.4 fold: Effects on Transcription Level: Novel gene fragment, 726 bp, 76% SI to human succinate dehydrogenase flavoprotein subunit (SDH) [L21936] (rat heart tissue; CARDIOTOX 66)
−4.7 fold: Effects on Transcription Level: Novel gene fragment, 173 bp, 70% SI to G protein-coupled receptor kinase GRK4 [X97568] (rat heart tissue; CARDIOTOX 62)
−1.4 fold: Effects on Transcription Level: Novel gene fragment, 957 bp, 99% SI to kidney injury associated moleculer HW036 [V80591] (rat heart tissue; CARDIOTOX 5) | Effects on Transcription Level: Novel gene fragment, 203 bp, 92% SI to rabbit sarcoplasmic reticulum glycoprotein [J04480] (rat heart tissue; CARDIOTOX 33) | Effects on Transcription Level: Novel gene fragment, 1115 bp, 83% SI to human KIAA0549 protein [AB011121] (rat heart tissue; CARDIOTOX 51) | Effects on Transcription Level: Novel gene fragment, 153 bp (rat heart tissue; CARDIOTOX 52)
+1.1 fold: Effects on Transcription Level: Novel gene fragment 553 bp, 93% SI to mouse Sid329 [AB024984] (rat heart tissue; CARDIOTOX 13) | Effects on Transcription Level: Ribosomal protein L3 (rat heart tissue; CARDIOTOX 15, GenBank X62166) | Effects on Transcription Level: Novel gene fragment, 1294 bp, 96% SI to mouse Sui 1 (elF) homolog [AF129888] (rat heart tissue; CARDIOTOX 19) | Effects on Transcription Level: Novel gene fragment, 546 bp (rat heart tissue; CARDIOTOX 31) | Effects on Transcription Level: PKC-zeta-interacting protein (rat heart tissue; CARDIOTOX 39, GenBank Y08355) | Effects on Transcription Level: Novel gene fragment, 428 bp, 86% SI to human titin [X90568] (rat heart tissue; CARDIOTOX 47) | Effects on Transcription Level: Novel gene fragment, 374 bp, 88% SI to human titin [X90568] (rat heart tissue; CARDIOTOX 48)

Reference: patent US20040005537A1, “Method of identifying toxic agents using differential gene expression” (priority 2000, published 2004)
